Reference: the OligoGym collection
These antisense oligonucleotides have a phosphorothioate backbone; sugars and methylation of C are not fully specified.

Experiments:
Conditions in all cases: ASO
WWP1 = target: WWP1
PTPN11 = target: PTPN11
PRKACA = target: PRKACA
CHUK = target: CHUK
Further: test concentration or dose not given here.

CATAAGCAATTTGTGGACCA
remaining target (mRNA or protein) (fraction of control) (WWP1): ≥ 1

TCCACCATAGGATTCTTCTT
remaining target (mRNA or protein) (fraction of control) (PTPN11): 0.43

GCAGGCTCAGATGCGAGTGG
remaining target (mRNA or protein) (fraction of control) (WWP1): ≥ 1

CAAACTGATCCAAGTGGGCT
remaining target (mRNA or protein) (fraction of control) (PRKACA): 0.27

CTTCCTCATAGTCGTCAAAG
remaining target (mRNA or protein) (fraction of control) (PRKACA): 0.68

GTTGTCCTTGAAGGAGAACT
remaining target (mRNA or protein) (fraction of control) (PRKACA): ≥ 1

AATTTACACAATCAGATA
remaining target (mRNA or protein) (fraction of control) (CHUK): ≥ 1

ACCATCTCCGCGATGTCATG
remaining target (mRNA or protein) (fraction of control) (PTPN11): 0.33

TTGATGTGGGTGACAGCTCC
remaining target (mRNA or protein) (fraction of control) (PTPN11): 0.42

ATGTCATGTTCCTCCCGCCC
remaining target (mRNA or protein) (fraction of control) (PTPN11): 0.43

TGGCTCCCCAGCGGCTCCCC
remaining target (mRNA or protein) (fraction of control) (PRKACA): 0.64

ATTGATCTTTACATGACTAG
remaining target (mRNA or protein) (fraction of control) (WWP1): 0.83

GCGTTGCCCATCGCGGCGGC
remaining target (mRNA or protein) (fraction of control) (PRKACA): 0.36

CTTAATTGCTATTTTGAG
remaining target (mRNA or protein) (fraction of control) (CHUK): ≥ 1

AGAATGGTAAAGAGAAACCA
remaining target (mRNA or protein) (fraction of control) (WWP1): ≥ 1

TCAATACGAGACTGTAGT
remaining target (mRNA or protein) (fraction of control) (CHUK): ≥ 1

TGTTCCTCCCGCCCTCCGGC
remaining target (mRNA or protein) (fraction of control) (PTPN11): ≥ 1

TGTGTAAGGCTTATTCTC
remaining target (mRNA or protein) (fraction of control) (CHUK): 0.91

TAGATGAGATCCAGCGAGTG
remaining target (mRNA or protein) (fraction of control) (PRKACA): 0.72

AGCAATACATTCAAATAC
remaining target (mRNA or protein) (fraction of control) (CHUK): ≥ 1

GGCGGCGGCGGCGTTGCCCA
remaining target (mRNA or protein) (fraction of control) (PRKACA): 0.51

TCCCATTGCGAGGATCTTTG
remaining target (mRNA or protein) (fraction of control) (WWP1): ≥ 1

ATTGGCATGGTTCAACTT
remaining target (mRNA or protein) (fraction of control) (CHUK): 0.69

CTCTCCAAGTCAAGCTGA
remaining target (mRNA or protein) (fraction of control) (CHUK): 0.49

AAACCATCTCCGCGATGTCA
remaining target (mRNA or protein) (fraction of control) (PTPN11): 0.41

GCTGTCACTGTAGGAGTG
remaining target (mRNA or protein) (fraction of control) (CHUK): 0.75

ATGTCAACAGAAAAGTACAT
remaining target (mRNA or protein) (fraction of control) (WWP1): ≥ 1

AAATAGTGCCATGGCAATAA
remaining target (mRNA or protein) (fraction of control) (WWP1): 0.98

ACAGACAGACGTTCCCGA
remaining target (mRNA or protein) (fraction of control) (CHUK): 0.85

TCTCGATGTATAATTTTG
remaining target (mRNA or protein) (fraction of control) (CHUK): ≥ 1

TTCTTGAGAACCAGTATT
remaining target (mRNA or protein) (fraction of control) (CHUK): ≥ 1

GGCGGCGTTGCCCATCGCGG
remaining target (mRNA or protein) (fraction of control) (PRKACA): 0.31

AAGAATATCAATCACAATGA
remaining target (mRNA or protein) (fraction of control) (PTPN11): ≥ 1

GTTGTTGTTCTGGTGTTATG
remaining target (mRNA or protein) (fraction of control) (WWP1): 0.95

TGAGCACACGGTCCTGAC
remaining target (mRNA or protein) (fraction of control) (CHUK): 0.79

GAATTAGAGGTGTCAGGCTC
remaining target (mRNA or protein) (fraction of control) (WWP1): ≥ 1

TGCAGGGATGCCCTCCCCAC
remaining target (mRNA or protein) (fraction of control) (PRKACA): 0.35

TTCAGCCCACACTTTACG
remaining target (mRNA or protein) (fraction of control) (CHUK): 0.58

AAATAACGGAAGTGAGCAAG
remaining target (mRNA or protein) (fraction of control) (WWP1): 0.88

TTGGCGCTTCGTTCATTTGC
remaining target (mRNA or protein) (fraction of control) (PRKACA): 0.61

ATCTATTTCTGTGCTGAAGT
remaining target (mRNA or protein) (fraction of control) (PTPN11): 0.66

TATTTTATGTATTATCTT
remaining target (mRNA or protein) (fraction of control) (CHUK): ≥ 1

AACAGTAGTACTAGTGCAAT
remaining target (mRNA or protein) (fraction of control) (WWP1): ≥ 1

ATCATCAACTCTTCTTTCCC
remaining target (mRNA or protein) (fraction of control) (WWP1): 0.7

AAAGTCATTCACCGTGTTTT
remaining target (mRNA or protein) (fraction of control) (PTPN11): 0.54

CTTAGCTCTAGGCGACAA
remaining target (mRNA or protein) (fraction of control) (CHUK): 0.56

CAGGCAGCCCCTCCCCAGCA
remaining target (mRNA or protein) (fraction of control) (PRKACA): 0.51

TTCTTCCCAAAAGCCTTGTT
remaining target (mRNA or protein) (fraction of control) (PTPN11): 0.67

CATGTTCCTCCCGCCCTCCG
remaining target (mRNA or protein) (fraction of control) (PTPN11): 0.29

CCTGGTGGCAAAGGTCCATA
remaining target (mRNA or protein) (fraction of control) (WWP1): ≥ 1

CGATGTCATGTTCCTCCCGC
remaining target (mRNA or protein) (fraction of control) (PTPN11): 0.4

GAACATCTCCCCGCCGGGCA
remaining target (mRNA or protein) (fraction of control) (PRKACA): 0.87

AAAGAATCAAACCGTTCTCC
remaining target (mRNA or protein) (fraction of control) (PTPN11): 0.58

GTTGGTGCAAATGAGGATGA
remaining target (mRNA or protein) (fraction of control) (WWP1): 0.95

TGGCTGCGGCCGGCGGCCCG
remaining target (mRNA or protein) (fraction of control) (PRKACA): 0.51

TCCACTCGTCTGGTCCGCTA
remaining target (mRNA or protein) (fraction of control) (PTPN11): 0.29

TTTGTGTTATGATTCACAAA
remaining target (mRNA or protein) (fraction of control) (WWP1): 0.95

GATCCACATAATAGGTTCTA
remaining target (mRNA or protein) (fraction of control) (WWP1): ≥ 1

AAACCACTTGTGGTTCTTGA
remaining target (mRNA or protein) (fraction of control) (PRKACA): 0.66

TCCCAGACTGCTGCCGTACA
remaining target (mRNA or protein) (fraction of control) (WWP1): 0.47

CTGTGGTCTCAGCTAATTTG
remaining target (mRNA or protein) (fraction of control) (PTPN11): 0.35

TATGATCAACAAAGTACCTT
remaining target (mRNA or protein) (fraction of control) (WWP1): ≥ 1

CGCGATGTCATGTTCCTCCC
remaining target (mRNA or protein) (fraction of control) (PTPN11): 0.45

ATTCCAATTCTGCACTGGTA
remaining target (mRNA or protein) (fraction of control) (WWP1): ≥ 1

CGCACCATCTGGATGGTTTT
remaining target (mRNA or protein) (fraction of control) (PTPN11): 0.5

GAGACGGAGATGAAGGTGTG
remaining target (mRNA or protein) (fraction of control) (WWP1): ≥ 1

AGAGCATACTCATCAGGCCA
remaining target (mRNA or protein) (fraction of control) (PTPN11): 0.2

GAAAGAACAAAATCTCCAGG
remaining target (mRNA or protein) (fraction of control) (PTPN11): ≥ 1
